Measured values from patent US4906659A, “Antibiotic tan-749, its derivatives, production and use thereof” (Takeda Chemical Industries, Ltd., priority 1985, dated 1990).
Values after ≈ are worked out from the molar mass of the structure shown. Structures can show the parent of a compound that is named as a salt. Blank lines part the entries; values can stand above or below the compound they belong to.

Tests used:
[1] = Solubility; format: physicochemical
[2] = pKa' value; format: physicochemical; details: dihydrochloride
[3] = tested on: Escherichia coli 0-111; assay: Therapeutic effect on infectious disease in mice (Table G); format: in vivo; details: Escherichia coli, 0111, sc, dihydrochloride, bacteria infected intraperitoneally, subcutaneous administration
[4] = Preliminary acute toxicities in mice (Table H); details: mouse, in vivo, dihydrochloride
[5] = tested on: Staphylococcus aureus 308A-1; assay: Therapeutic effect on infectious disease in mice (Table G); format: in vivo; details: 308A1, sc, dihydrochloride, bacteria infected intraperitoneally, subcutaneous administration
[6] = tested on: Escherichia coli T7; assay: as above; format: in vivo; details: T7, sc, dihydrochloride, bacteria infected intraperitoneally, subcutaneous administration
[7] = tested on: Escherichia coli T7; assay: Antibacterial spectrum, minimal inhibitory concentration, agar dilution (Table E); format: cell-based; details: dihydrochloride, medium TSA, inoculum a loopful of 10^8 CFU/ml
Text: (§1) Tables D and E show the antibacterial spectra of TAN-749A, B, C and D (dihydrochlorides) against various microorganisms.
(§2) (Note 1) Determined by the agar dilution method. Inoculum size was a
(§3) loopful of 10^8 CFU/ml.
(§4) (Note 2) TSA (Tripticase Soy Agar; Baltimore Biological Laboratories,
(§5) USA), B--TSA; 10% horse serum/TSA

[8] = tested on: Staphylococcus aureus FDA209P; assay: as above; format: cell-based; details: dihydrochloride, medium B--TSA (10% horse serum/TSA), inoculum a loopful of 10^8 CFU/ml
Text: as §1, §2, §3, §4, §5

[9] = tested on: Pseudomonas aeruginosa P9; assay: as above; format: cell-based; details: dihydrochloride, medium B--TSA (10% horse serum/TSA), inoculum a loopful of 10^8 CFU/ml
Text: as §1, §2, §3, §4, §5

[10] = tested on: Staphylococcus aureus 308A-1; assay: as above; format: cell-based; details: 308A1, dihydrochloride, medium TSA, inoculum a loopful of 10^8 CFU/ml
Text: as §1, §2, §3, §4, §5

[11] = tested on: Streptococcus pyogenes E-14; assay: as above; format: cell-based; details: E14, dihydrochloride, medium B--TSA (10% horse serum/TSA), inoculum a loopful of 10^8 CFU/ml
Text: as §1, §2, §3, §4, §5

[12] = tested on: Klebsiella pneumoniae IFO 3317; assay: Antibacterial spectrum, minimal inhibitory concentration (Table D); format: cell-based; details: IFO3317, dihydrochloride, Bacto-Antibiotic Medium 3 agar, inoculum a loopful of approx. 10^6 CFU/ml
Experimental: as §1
(§6) Bacto-Antibiotic Medium 3
(§7) Distilled water 1,000 ml
(§8) Inoculum size a loopful of approx.

[13] = tested on: Acinetobacter calcoaceticus IFO 13006; assay: as above; format: cell-based; details: IFO13006, dihydrochloride, Bacto-Antibiotic Medium 3 agar, inoculum a loopful of approx. 10^6 CFU/ml
Experimental: as §1, §6, §7, §8

[14] = tested on: Alcaligenes faecalis IFO 13111; assay: as above; format: cell-based; details: IFO13111, dihydrochloride, Bacto-Antibiotic Medium 3 agar, inoculum a loopful of approx. 10^6 CFU/ml
Experimental: as §1, §6, §7, §8

[15] = tested on: Proteus morganii IFO 3168; assay: as above; format: cell-based; details: Morganella morganii, IFO3168; dihydrochloride; Bacto-Antibiotic Medium 3 agar; inoculum a loopful of approx. 10^6 CFU/ml
Experimental: as §1, §6, §7, §8

[16] = tested on: Staphylococcus aureus FDA 209P; assay: as above; format: cell-based; details: FDA209P, dihydrochloride, Bacto-Antibiotic Medium 3 agar, inoculum a loopful of approx. 10^6 CFU/ml
Experimental: as §1, §6, §7, §8

[17] = tested on: Proteus vulgaris IFO 3988; assay: as above; format: cell-based; details: IFO3988, dihydrochloride, Bacto-Antibiotic Medium 3 agar, inoculum a loopful of approx. 10^6 CFU/ml
Experimental: as §1, §6, §7, §8

[18] = tested on: Citrobacter freundii IFO 12681; assay: as above; format: cell-based; details: IFO12681, dihydrochloride, Bacto-Antibiotic Medium 3 agar, inoculum a loopful of approx. 10^6 CFU/ml
Experimental: as §1, §6, §7, §8

[19] = tested on: Escherichia coli NIHJ JC2; assay: as above; format: cell-based; details: NIHJJC2, dihydrochloride, Bacto-Antibiotic Medium 3 agar, inoculum a loopful of approx. 10^6 CFU/ml
Experimental: as §1, §6, §7, §8

[20] = tested on: S. aureus 308A-1; assay: Antibacterial activity against gram-positive bacteria, MIC (Table 3); format: cell-based; details: Staphylococcus aureus, 308A1; Tripticase Soy Agar; inoculum size 10^8 cfu/ml
Text: The antibacterial activities against gram-positive bacteria (S. aureus 308A-1) of some compounds of the invention are as shown in Table 3.
*Medium: Tripticase Soy Agar Inoculum size: 10^8 cfu/ml

[21] = tested on: S. aureus 308A-1; assay: Antibacterial activity in mice, ED50 (Table 3); format: in vivo; details: Staphylococcus aureus, 308A1, sc, S.C.
Text: The antibacterial activities against gram-positive bacteria (S. aureus […]-1) of some compounds of the invention are as shown in Table 3. | **mice, S.C.,

SMILES: C/C=C\C=C\C(=O)NC(C)C(O)CC(N)CC(=O)NCCC(=N)N (centres unmarked) [TAN-749B dihydrochloride]
Solubility (by reference to TAN-749A dihydrochloride) [1]: Same with TAN-749A dihydrochloride | pKa [2]: 8.05

SMILES: C/C=C/C=C/C(=O)NCC(O)CC(N)CC(=O)NCCC(=N)N (centres unmarked) [TAN-749C dihydrochloride]
Solubility (by reference to TAN-749A dihydrochloride) [1]: Same with TAN-749A dihydrochloride

SMILES: C/C=C\C=C\C(=O)NCC(O)CC(N)CC(=O)NCCC(=N)N (centres unmarked) [I]
ED50 [3]: 67.2 mg/kg | LD50 ([4]; oral): 2000 to 4000 mg/kg | LD50 ([4]; sc, subcutaneous): ~500 mg/kg | ED50 [5]: 1.31 mg/kg | ED50 [6]: 50.8 mg/kg | MIC [7]: 50 µg/mL (≈ 154 µM) | MIC [8]: 12.5 µg/mL (≈ 38.4 µM) | MIC [9]: 100 µg/mL (≈ 307 µM) | MIC [10]: 12.5 µg/mL (≈ 38.4 µM) | MIC [11]: 3.13 µg/mL (≈ 9.62 µM) | MIC [12]: > 100 µg/mL | MIC [13]: 25 µg/mL (≈ 76.8 µM) | MIC [14]: 3.13 µg/mL (≈ 9.62 µM) | MIC [15]: > 100 µg/mL | MIC [16]: 50 µg/mL (≈ 154 µM) | MIC [17]: 100 µg/mL (≈ 307 µM) | MIC [18]: ≥ 100 µg/mL | MIC [19]: > 100 µg/mL

MIC [20]: > 100 µg/mL
SMILES: C/C=C\C=C\C(=O)NC[C@H](O)C[C@H](CC(=O)NCCC(=N)N)NC(=O)[C@H](C)N [136b]
ED50 [21]: 8.16 mg/kg

MIC [20]: > 100 µg/mL
SMILES: C=C/C=C(\C)C(=O)NC[C@H](O)C[C@@H](N)CC(=O)NCCC(=N)N [112b]
ED50 [21]: 6.25 mg/kg

MIC [20]: > 100 µg/mL
SMILES: C/C=C\C=C\C(=O)NC[C@H](O)C[C@H](CC(=O)NCCC(=N)N)NC(=O)C(N)CO (some centres unmarked) [134b]
ED50 [21]: 7.79 mg/kg

MIC [20]: > 100 µg/mL
SMILES: C/C=C\C=C\C(=O)NC[C@H](O)C[C@H](CC(=O)NCCC(=N)N)NC(=O)CN [133b]
ED50 [21]: 8.41 mg/kg

MIC [20]: 100 µg/mL (≈ 295 µM)
SMILES: CC=CC=C(C)C(=O)NCC(O)CC(N)CC(=O)NCCC(=N)N (centres unmarked) [44b]
ED50 [21]: 21.5 mg/kg

MIC [20]: > 100 µg/mL
SMILES: N=C(N)CCNC(=O)C[C@H](N)C[C@@H](O)CNC(=O)/C=C/C=C\Cl [120b]
ED50 [21]: 8.61 mg/kg

MIC [20]: > 100 µg/mL
SMILES: C/C=C\C=C\C(=O)NC[C@H](O)C[C@@H](N)CC(=O)NCCC(=N)NC [125b]
ED50 [21]: 19.2 mg/kg
